Like-named read-outs stand apart in the source and are kept apart here.
Assays:
Format in all cases: biochemical
α-Glucosidase (AGS) [1] = target: T1, α-Glucosidase (AGS) (Saccharomyces cerevisiae, UniProt P53341); experiment: AGS (α-glucosidase) inhibitory assay
Method: (§1) The AGS [23, 24, 25, 26] and BGUS [27] inhibitory activities were evaluated by the methods reported in the literature, respectively.

α-Glucosidase (AGS) [2] = target: T1, α-Glucosidase (AGS); experiment: Inhibition kinetics against AGS (Lineweaver–Burk plots); details: for Ki: AGS, secondary plot of slope versus [I], read-out: Ki (inhibition constant of the enzyme); for mode of inhibition against AGS: Lineweaver–Burk plots
Method: (§2) The mode of inhibition for the active compounds was determined by the Lineweaver–Burk plot fitted by GraphPad Prism 8.0 software. The Km value and the Vmax value were obtained from the slope and Y-axis intercept of the Lineweaver–Burk plot based on the following equation:(1) Vmax=1/Y−intercept (2) Km=slope× Vmax
(§3) The Ki and Ki’ values were available by secondary plotting of the slope and Y-intercept on the Lineweaver–Burk plot versus the inhibitor [I] through the following equations:(3) Slope=Km/Vmax+Km[I]/VmaxKi (4) Y−intercept=1/Vmax+[I]/VmaxKi′

[3] = target: T2, bacterial β-glucuronidase (BGUS) (Escherichia coli, UniProt P05804); experiment: BGUS (β-glucuronidase) inhibitory assay; details: in vitro; for IC50: means ± SD
T2 sequence (P05804 whole entry): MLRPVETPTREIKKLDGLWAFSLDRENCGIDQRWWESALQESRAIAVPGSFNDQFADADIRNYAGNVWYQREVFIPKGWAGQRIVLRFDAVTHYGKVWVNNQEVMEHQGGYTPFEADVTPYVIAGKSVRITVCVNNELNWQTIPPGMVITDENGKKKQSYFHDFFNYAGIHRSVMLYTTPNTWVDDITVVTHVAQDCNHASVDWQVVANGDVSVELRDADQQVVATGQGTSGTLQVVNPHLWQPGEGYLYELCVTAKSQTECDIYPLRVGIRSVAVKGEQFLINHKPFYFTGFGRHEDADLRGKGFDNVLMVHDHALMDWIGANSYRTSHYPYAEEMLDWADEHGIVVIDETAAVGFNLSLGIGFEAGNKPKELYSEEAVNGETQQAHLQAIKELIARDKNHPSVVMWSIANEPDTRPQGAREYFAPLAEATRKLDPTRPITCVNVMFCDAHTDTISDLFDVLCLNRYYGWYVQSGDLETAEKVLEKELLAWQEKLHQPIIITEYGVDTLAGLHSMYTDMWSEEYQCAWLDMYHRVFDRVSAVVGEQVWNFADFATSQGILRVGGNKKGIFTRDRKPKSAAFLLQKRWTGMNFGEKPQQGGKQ
Method: as §1

[4] = target: T2, bacterial β-glucuronidase (BGUS); experiment: Inhibition kinetics against BGUS (Lineweaver–Burk plots)
Method: as §2, §3

[5] = in vitro, means ± SD, read-out: IC50 α-Glucosidase

T1 sequence (P53341 whole entry): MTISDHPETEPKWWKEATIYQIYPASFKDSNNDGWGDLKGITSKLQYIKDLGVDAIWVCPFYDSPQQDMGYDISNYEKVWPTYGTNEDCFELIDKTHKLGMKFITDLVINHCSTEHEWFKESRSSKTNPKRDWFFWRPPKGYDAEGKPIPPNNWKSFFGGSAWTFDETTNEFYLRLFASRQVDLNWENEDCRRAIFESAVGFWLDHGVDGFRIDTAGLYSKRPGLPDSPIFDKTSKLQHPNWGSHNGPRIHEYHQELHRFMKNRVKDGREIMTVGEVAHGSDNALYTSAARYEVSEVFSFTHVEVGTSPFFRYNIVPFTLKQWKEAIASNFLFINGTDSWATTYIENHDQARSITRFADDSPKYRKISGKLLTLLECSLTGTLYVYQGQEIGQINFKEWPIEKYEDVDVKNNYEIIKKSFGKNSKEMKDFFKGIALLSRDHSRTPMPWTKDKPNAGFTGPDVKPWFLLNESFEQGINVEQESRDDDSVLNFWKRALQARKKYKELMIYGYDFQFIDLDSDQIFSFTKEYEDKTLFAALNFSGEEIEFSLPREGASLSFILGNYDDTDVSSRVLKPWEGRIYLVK

SMILES	IC50 (α-Glucosidase (AGS) [1]) [µM]	Ki (α-Glucosidase (AGS) [2]) [µM]	mode of inhibition against AGS (α-Glucosidase (AGS) [2])	IC50 [3] [µM]	IC50 (α-Glucosidase (AGS) [1]; [5]) [µM]	mode of inhibition against BGUS [4]	BGUS inhibitory activity (in words) [3]
CC(=O)OC1CC2=C(CCC3C(=C2)C=CC(=O)OC3(C)C)C2(C)CCC(C(C)C3CC=C(C)C(=O)O3)C12C (stereo not shown) [Compound 1, Sphaerandralide A]	61.5 ± 1.75	35.8	mixed-type inhibitors	–	–	–	–
O=C(O)[C@@H](O)[C@H]1OC(=O)[C@H](O)[C@H]1O [DSL, D-Saccharic 1,4-lactone, reference compound]	–	–	–	56.9 ± 1.57	–	–	–
CC1=CCC(C(C)C2CCC3(C)C4CCC5C(C)(C)OC(=O)C=CC56CC46CCC23C)OC1=O (stereo not shown) [Compound 3, schisanlactone B]	–	10.5	mixed-type inhibitors	14.7 ± 0.1	29.5 ± 0.7	mixed-type inhibitor	–
C=C(C)[C@@H]1CC[C@@H]2[C@]3(CC[C@]4(C)C(=O)CC[C@@]24C)C[C@]13CCC(=O)OC [Compound 5, schiglausin L]	–	–	could not be well defined	–	42.9 ± 1.04	–	–
C=C(C)[C@@H]1CC[C@@H]2[C@]3(CC[C@]4(C)[C@@H]([C@H](C)CC/C=C(/C)C(=O)O)CC[C@@]24C)C[C@]13CCC(=O)OC [Compound 4, 3,4-seco-(24Z)-cycloart-4(28),24-diene-3,26-dioic-3-methyl ester]	–	7.97	competitive inhibitors	155 ± 4.68	14.1 ± 0.29	–	weak activity

From paper PMC8954508, “α-Glucosidase and Bacterial β-Glucuronidase Inhibitors from the Stems of Schisandra sphaerandra Staph” (Pharmaceuticals, 2022)
